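Tested at 5 concentrations; 48 h exposure; 96-well plates; endpoints linearly interpolated, else capped at highest concentration. GI50: concentration for 50% inhibition of growth. The concentration for full growth arrest is given as TGI.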
How the values were obtained:
Assay in all cases: growth of human tumour cells (NCI), 48 h
NCI-H522 lung = tested on: NCI-H522 lung
IGROV1 ovarian = tested on: IGROV1 ovarian
MALME-3M melanoma = tested on: MALME-3M melanoma
SF-268 CNS = tested on: SF-268 CNS
M14 melanoma = tested on: M14 melanoma
SR leukemia = tested on: SR leukemia
BT-549 breast = tested on: BT-549 breast
DU-145 prostate = tested on: DU-145 prostate
MDA-MB-231 breast = tested on: MDA-MB-231 breast
MDA-MB-435 = tested on: MDA-MB-435

Compound | TGI (NCI-H522 lung) [µM] | TGI (IGROV1 ovarian) [µM] | TGI (MALME-3M melanoma) [µM] | TGI (SF-268 CNS) [µM] | TGI (M14 melanoma) [µM] | TGI (SR leukemia) [µM] | GI50 (BT-549 breast) [µM] | TGI (BT-549 breast) [µM] | GI50 (NCI-H522 lung) [µM] | GI50 (SR leukemia) [µM] | GI50 (IGROV1 ovarian) [µM] | GI50 (DU-145 prostate) [µM] | TGI (DU-145 prostate) [µM] | GI50 (MALME-3M melanoma) [µM] | GI50 (SF-268 CNS) [µM] | GI50 (M14 melanoma) [µM] | GI50 (MDA-MB-231 breast) [µM] | TGI (MDA-MB-231 breast) [µM] | GI50 (MDA-MB-435) [µM] | TGI (MDA-MB-435) [µM]
Cc1n[nH]c(=S)n(C)c1=S | > 100 | > 100 | > 100 | > 100 | > 100 |  |  |  |  |  |  |  |  |  |  |  |  |  |  | 
COC(=O)c1ccccc1N(C(=O)c1ccccc1)c1ccccc1C | 86.1 | > 100 | > 100 | > 100 | 73.1 | 99.4 |  |  |  |  |  |  |  |  |  |  |  |  |  | 
CSc1c(C2=C(c3cn(C)c4ccccc34)C(=O)NC2=O)c2ccccc2n1C | 1.59 | > 25 | > 25 | > 25 | > 25 | 1.88 | 0.747 | 11.5 | 0.367 | 0.128 | 1.39 | 1.13 | > 25 | 1.21 | 1.51 | 0.649 | 2.57 | > 25 |  | 
CCOC(=O)C(=O)Nc1nc2c(OCC)cccc2s1 | > 100 | > 100 | > 100 | > 100 | > 100 |  |  |  |  |  |  |  |  |  |  |  |  |  |  | 
COc1cc2c(c(OC)c1OC)-c1ccc(O)cc1[C@@H](NC(C)=O)CC2 | 0.097 |  |  | > 29.1 |  |  | 0.152 | > 100 | 0.0242 | 0.0265 | 0.0515 | 0.0365 | 0.168 |  | 0.0641 | 0.033 | 0.0689 | > 100 | 0.0206 | 0.0463
O=C(O)[C@H](Cc1c[nH]c2ccccc12)N1C(=O)c2ccccc2C1=O | > 100 | > 100 | > 100 | > 100 | > 100 |  |  | > 100 |  |  | > 100 |  | > 100 |  |  |  |  | > 100 |  | > 100
N.N.N.N.N.NC(=O)[O-].[Co+3].[I-] | > 100 | > 100 | > 100 | > 100 | > 100 |  |  |  | > 100 |  | > 100 |  |  | > 100 | > 100 | > 100 |  |  |  | 
CCCCOC(=O)c1ccc(N)cc1 | > 100 | > 100 | > 100 | > 100 | > 100 |  | 77.6 | > 100 | 54.1 |  | > 100 | > 100 | > 100 | > 100 | 71.1 | 41.1 | > 100 | > 100 | 34.9 | > 100
CCCCCCCCCCCCCCCC1=NCCN1 |  | 4.51 | 6.46 |  |  | 4.31 | 6.39 | 29.7 |  | 1.84 | 1.96 | 1.9 | 3.57 | 2.38 |  |  | 2.23 | 4.68 | 1.7 | 3.26
CC(C)N(O)C(=N)c1ccccc1 | > 100 |  |  | > 100 | > 100 |  |  |  |  |  |  |  |  |  |  |  |  |  |  | 
Cc1ccc(-c2nc3ccccc3c(=O)n2NCC2(O)OCC(O)C(O)C2O)cc1 (configuration not stated) | > 100 |  | > 100 | > 100 | > 100 | > 100 |  |  |  |  |  |  |  |  |  |  |  |  |  | 
O=C1C(Cl)=C(Nc2ccc(Nc3ccccc3)c(NC3=C(Cl)C(=O)c4ccccc4C3=O)c2)C(=O)c2ccccc21 |  | 69.1 | 5.71 | 18.8 | > 100 |  |  |  |  |  | 15.9 | 14.9 | 28.4 | 2.5 | 3.63 | 4.55 | 1.27 | 6.02 | 25 | > 100
C=C(CO)CC(O)c1cc(OC)ccc1OC (configuration not stated) | > 100 | > 100 | > 100 | > 100 | > 100 |  |  |  |  |  |  |  |  |  |  |  |  |  |  | 
COC(=O)C1=C(O)[C@H](C(=O)OC)C2(O)C(C(=O)OC)[C@H](c3ccc(OC(=O)C(C)c4ccccc4)cc3)C[C@@H]1[C@@H]2C(=O)OC (some centres not stated) | 45.1 | > 50 |  | > 50 | > 50 | > 50 | 19.3 | > 50 | 15.9 | 29.9 | 26.7 | 20.6 | > 50 |  | 17.2 | 34.9 | 19.5 | > 50 | 10.4 | 25.1
C[C@]12CCC(=O)C(OC(=O)c3ccc([N+](=O)[O-])cc3)=C1CCC2=O | > 100 | > 100 | > 100 | > 100 | > 100 | > 100 |  |  |  |  |  |  |  |  |  |  |  |  |  | 
COc1cc(OC)c(C(=O)c2cccs2)cc1N |  | > 100 | > 100 | > 100 | > 100 |  |  |  |  |  |  |  |  |  |  |  |  |  |  | 
CCN1CCC(Nc2ccnc3cc(Cl)ccc23)CC1 |  | > 100 | 40.4 | > 100 | 29.3 | 28.2 |  |  |  | 3.44 | 11.7 | 36.5 | > 100 | 20.7 | 23.6 | 14.4 | 19.7 | > 100 | 17.8 | 55.5
CN1CN(C2OC(CO)C(O)C2O)c2nc(N)[nH]c(=O)c21 (configuration not stated) | 38.5 | > 100 | > 100 | > 100 | > 100 | > 100 |  |  |  |  |  |  |  |  |  |  |  |  |  | 
COc1cc(/C=C(\NC(=O)c2ccccc2)c2nc3ccc4c(c3[nH]2)C(=O)c2ccccc2C4=O)cc(OC)c1OC | > 100 | > 100 | > 100 | > 100 | > 100 |  |  |  |  |  |  |  |  |  |  |  |  |  |  | 
N#CC(C(=O)C(=O)Nc1ccccc1)c1ccccc1 (configuration not stated) | > 100 | > 100 | > 100 | > 100 | > 100 | > 100 |  |  |  |  |  |  |  |  |  |  |  |  |  | 
Oc1ccc(Nc2ccc3ccccc3c2)cc1 | 27.7 | 18 | 13.4 | 29.4 | 23.4 | 38.3 |  |  | 8.99 | 3.32 | 3.75 | 4.87 | 19.2 | 3.45 | 4.94 | 5.01 | 4.06 | 27.8 | 3.27 | 14

Source: PubChem BioAssay (NCI)
